Tested on: 377384-186-R-J1-PDC complex spheroid viability
Assay: Anticancer human tumor 377384-186-R-J1-PDC patient-derived pancreatic carcinoma cell line growth inhibition [RAS]
Conditions: for IC50: curve of first compound; for viability, T/C: stronger effect = lower value
How it was run: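 Agents were tested in combination matrices in half-log decrements from a top concentration at or near clinical Cmax (10 microM if undetermined). Targets were multi-cell spheroids of tumour lines plus HUVEC and MSC stromal cells.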
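Also: spheroids exposed to compounds for seven days before readout.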

IC50 (second compound 0.000949 µM): > 1000 nM | IC50 (second compound 0.003 µM): > 1000 nM | IC50 (second compound 0.00949 µM): > 1000 nM | IC50 (second compound 0.03 µM): > 1000 nM | IC50 (second compound 0.0949 µM): > 1000 nM | IC50 (second compound 0.3 µM): > 1000 nM
SMILES: C=CC(=O)N1CCN(c2nc(OCC3CCCN3C)nc3c(F)c(-c4nc(N)cc(C)c4C(F)(F)F)c(Cl)cc23)C(C)C1 (configuration not stated) + CCn1c(-c2cccnc2C(C)OC)c2c3cc(ccc31)N1CCOC(CC(NC(=O)C(C(C)C)N(C)C(=O)C3(F)CCN(C(=O)C#CC(C)(C)N(C)C)CC3)C(=O)N3CCCC(N3)C(=O)OCC(C)(C)C2)C1
viability, T/C (second compound 0.000949 µM, first compound 0.00316 µM): 107% | viability, T/C (second compound 0.000949 µM, first compound 0.01 µM): 108% | viability, T/C (second compound 0.000949 µM, first compound 0.0316 µM): 117% | viability, T/C (second compound 0.000949 µM, first compound 0.1 µM): 103% | viability, T/C (second compound 0.000949 µM, first compound 0.316 µM): 110% | viability, T/C (second compound 0.000949 µM, first compound 1 µM): 89.9% | viability, T/C (second compound 0.003 µM, first compound 0.00316 µM): 104% | viability, T/C (second compound 0.003 µM, first compound 0.01 µM): 96.4% | viability, T/C (second compound 0.003 µM, first compound 0.0316 µM): 103% | viability, T/C (second compound 0.003 µM, first compound 0.1 µM): 114% | viability, T/C (second compound 0.003 µM, first compound 0.316 µM): 104% | viability, T/C (second compound 0.003 µM, first compound 1 µM): 93.3% | viability, T/C (second compound 0.00949 µM, first compound 0.00316 µM): 113% | viability, T/C (second compound 0.00949 µM, first compound 0.01 µM): 97.7% | viability, T/C (second compound 0.00949 µM, first compound 0.0316 µM): 120% | viability, T/C (second compound 0.00949 µM, first compound 0.1 µM): 117% | viability, T/C (second compound 0.00949 µM, first compound 0.316 µM): 104% | viability, T/C (second compound 0.00949 µM, first compound 1 µM): 99.2% | viability, T/C (second compound 0.03 µM, first compound 0.00316 µM): 104% | viability, T/C (second compound 0.03 µM, first compound 0.01 µM): 96.7% | viability, T/C (second compound 0.03 µM, first compound 0.0316 µM): 99.7% | viability, T/C (second compound 0.03 µM, first compound 0.1 µM): 92.5% | viability, T/C (second compound 0.03 µM, first compound 0.316 µM): 99% | viability, T/C (second compound 0.03 µM, first compound 1 µM): 106% | viability, T/C (second compound 0.0949 µM, first compound 0.00316 µM): 93.3% | viability, T/C (second compound 0.0949 µM, first compound 0.01 µM): 91.3% | viability, T/C (second compound 0.0949 µM, first compound 0.0316 µM): 94.8% | viability, T/C (second compound 0.0949 µM, first compound 0.1 µM): 103% | viability, T/C (second compound 0.0949 µM, first compound 0.316 µM): 101% | viability, T/C (second compound 0.0949 µM, first compound 1 µM): 93.4% | viability, T/C (second compound 0.3 µM, first compound 0.00316 µM): 86.1% | viability, T/C (second compound 0.3 µM, first compound 0.01 µM): 86.3% | viability, T/C (second compound 0.3 µM, first compound 0.0316 µM): 96.8% | viability, T/C (second compound 0.3 µM, first compound 0.1 µM): 88.1% | viability, T/C (second compound 0.3 µM, first compound 0.316 µM): 96% | viability, T/C (second compound 0.3 µM, first compound 1 µM): 94.8%
